Data on 18 compounds can be found in patent US4689326A, “Process for controlling hyperlipidemia” (Research Corporation, priority 1985, dated 1987).

Type in all cases: in vivo, CF1 male mice
Experiment [1] concerns serum cholesterol. In words: Testing of Normal Mice: serum cholesterol (modified Liebermann-Burchard), Example 7. The following applies: Mus musculus; for response vs control in vivo at 20 mg/kg: 20 mg/kg/day ip; for response vs control in vivo at 150 mg/kg: 150 mg/kg/day ip. How it is done:
(§1) Suspensions of Compounds Nos. 1-9 were prepared wherein the compounds were suspended in an aqueous 1% carboxymethylcelluose solution, homogenized and administered to CF1 male mice, each weighing approximately 25 grams, intraperitoneally on a daily basis for 16 days. The dosage was, with the exception of one compound, 20 milligrams of the active compound per kilogram of mouse weight per day. On days 9 and 16 blood was obtained by tail vein bleeding. The blood serum was separated by centrifugation for three minutes. Serum cholesterol levels were determined by a modification of the Liebermann-Burchard reaction. Serum was also collected on day 16 and the triglycerides content was determined by a commercial kit, BioDynamics/bnc Single Vile Colorimetric Method 348201. Each compound was tested on a group of six mice.
(§2) In addition to the above-described treated mice, untreated control groups of six mice were similarly tested on days 9 and 14 or 16 to determine their serum cholesterol and triglycerides blood levels. Table 5 reports the percent control, based on the serum cholesterol and serum triglyceride levels of the treated mice compared to the untreated controls. Table 5 also includes the standard deviation indicating the level of confidence of these numbers.
(§3) Example 7 was repeated substituting clofibrate, a compound used in the prior art to lower serum cholesterol and serum triglyceride levels. The clofibrate was administered as a suspension in an aqueous 1% solution of carboxymethylcellulose. However, unlike the compounds of the present invention which were administered at a dosage of 20 mg/kg day, ip, this compound was administered at the elevated concentration of 150 mg/kg day, ip.

The test system of experiment [2] is serum triglycerides. The experiment in a line: Testing of Normal Mice: serum triglycerides (BioDynamics kit), Example 7. The following applies: Mus musculus, 384 h, day 16, ± SD; for response vs control in vivo at 20 mg/kg: 20 mg/kg/day ip. How it is done:
as §1, §2, §3

Experiment [3] deals with serum cholesterol. The experiment in a line: Hypolipidemic Activity of Compounds 1 and 10-33, Example 13: serum cholesterol. The conditions noted are these: Mus musculus, 20 mg/kg/day ip. How it is done: (§4) Compounds 1 and 10-33, identified below in Table 11, were suspended by homogenation in a 1% aqueous solution of carboxymethylcellulose (CMC) such that a 0.2 ml dosage supplied a concentration of 20 mg/kg of the active compounds. The suspending agent, the 1% aqueous solution of CMC, was utilized as a control, applied in the same quantity, 0.2 ml. CF1 male mice, maintained in groups of six, were fed Wayne Blox [trademark] laboratory animal show ad libitum with water. The mice, which each weighed approximately 25 g, were administered the drugs interperitoneally at approximately the same time. On days 9 and 16 approximately […] of blood was taken from each of the animals by tail bleeding. After centrifugation to obtain serum, 25 microliter samples were assayed for total cholesterol utilizing the method of Ness et al. Serum triglyicerides were assayed, using a commercially available BioDynamics/bmc triglyiceride kit, on blood collected on the 16th day. By comparison to standards the milligram percent of cholesterol and milligram per deciliter concentration of triglicerides were calculated. Treated values were expressed as a percent of the level of the control animals plus or minus the standard deviation. The "T" values were obtained using the Student's "t" test.

The test system of experiment [4] is serum triglycerides. In words: Hypolipidemic Activity of Compounds 1 and 10-33, Example 13: serum triglycerides. The following applies: Mus musculus, 384 h; 20 mg/kg/day ip, day 16, ± SD; read-out: Serum Triglyceride as a function of control, 16 Day. How it is done: as §4
[5] abbreviates: 216 h, day 9, ± SD, read-out: Serum Cholesterol Control, % Day 9.
[6] abbreviates: 384 h, day 16, ± SD, read-out: Serum Cholesterol Control, % Day 16.
The mark [7] stands for this setting: 216 h, day 9, ± SD, read-out: Serum Cholesterol as a function of control, 9 Day.
The mark [8] stands for this setting: 384 h, day 16, ± SD, read-out: Serum Cholesterol as a function of control, 16 Day.

SMILES strings stand for the structures. Like-named read-outs stand apart in the source and are kept apart here.

Regarding `O=C1NCc2ccccc2-c2ccccc21` [Compound 2, 3,4,5,6-dibenzohomopiperidin-2-one], the response vs control in vivo at 20 mg/kg with serum cholesterol [1] (setting [5]) was determined as 84 ± 6%; in the experiment with serum cholesterol [1] (setting [6]) it was 49 ± 4%; in the experiment on serum triglycerides [2], 73 ± 5%.
For the compound `CCN1Cc2ccccc2-c2ccccc2C1` [Compound 5, 2-ethyl-3,4,5,6-dibenzohomopiperidine], the response vs control in vivo at 20 mg/kg was 67 ± 5% with serum cholesterol [1] (setting [5]), 59 ± 4% in the experiment with serum cholesterol [1] (setting [6]) and 60 ± 4% in the experiment with serum triglycerides [2].
The like results for `CCCCN1Cc2ccccc2-c2ccccc2C1` [Compound 7, 2-butyl-3,4,5,6-dibenzohomopiperidine] were, in that order, 82 ± 7%, 59 ± 6% and 52 ± 7%.
On to `CC(=O)CCN1Cc2ccccc2-c2ccccc2C1` [Compound 9, 2-(3-Oxobutyl)-3,4,5,6-Dibenzohomopiperidine], for which the response vs control in vivo at 20 mg/kg in the experiment on serum cholesterol [1] (setting [5]) was found to be 69 ± 8%; in the experiment with serum cholesterol [1] (setting [6]) it was 56 ± 7%; in the experiment with serum triglycerides [2], 45 ± 5%.
For `O=c1[nH]c(=O)c2ccccc2c2ccccc12` [Compound 1, Diphenimide], the response vs control in vivo at 20 mg/kg in the experiment with serum cholesterol [3] (setting [7]) worked out at 81 ± 7%; with serum cholesterol [3] (setting [8]), 82 ± 4%; with serum cholesterol [1] (setting [5]) it was 81 ± 7%; in the experiment with serum cholesterol [1] (setting [6]) it was 82 ± 4%; in the experiment with serum triglycerides [2], 81 ± 7%; in the experiment with serum triglycerides [4], 81 ± 7%.
With `CCOC(=O)C(C)(C)Oc1ccc(Cl)cc1` [Compound C2, clofibrate, reference compound], the response vs control in vivo at 150 mg/kg came to 88 ± 7% in the experiment on serum cholesterol [1] (setting [5]), 87 ± 5% in the experiment with serum cholesterol [1] (setting [6]) and 75 ± 5% in the experiment with serum triglycerides [2] (150 mg/kg/day ip).
For the compound `CCCCCN1Cc2ccccc2-c2ccccc2C1` [Compound 8, 2-pentyl-3,4,5,6-dibenzohomopiperidine], the response vs control in vivo at 20 mg/kg was found to be 71 ± 6% in the experiment with serum cholesterol [1] (setting [5]), 67 ± 5% with serum cholesterol [1] (setting [6]) and 71 ± 4% in the experiment on serum triglycerides [2].
For `CC(=O)c1ccccc1-n1c(=O)c2ccccc2c2ccccc2c1=O` [Compound 31, N-(2-acetyl)-phenyldiphenimide], the response vs control in vivo at 20 mg/kg was 79 ± 7% in the experiment with serum cholesterol [3] (setting [7]), 76 ± 6% in the experiment with serum cholesterol [3] (setting [8]) and 58 ± 6% with serum triglycerides [4].
The like results for `O=c1c2ccccc2c2ccccc2c(=O)n1-c1ccccc1` [Compound 18, N-phenyldiphenimide] were, in that order, 97 ± 8%, 67 ± 6% and 62 ± 6%.
Turning to `CC(=O)c1cccc(-n2c(=O)c3ccccc3c3ccccc3c2=O)c1` [Compound 32, N-(3-acetyl)-phenyldiphenimide], the response vs control in vivo at 20 mg/kg stood at 77 ± 8% in the experiment on serum cholesterol [3] (setting [7]), 68 ± 6% in the experiment with serum cholesterol [3] (setting [8]) and 58 ± 4% with serum triglycerides [4].
For `CCc1cccc(-n2c(=O)c3ccccc3c3ccccc3c2=O)c1` [Compound 26, N-(3-ethyl)-phenyldiphenimide], in that order: 95 ± 7%, 77 ± 7% and 66 ± 6%.
In the case of `CCCN1Cc2ccccc2-c2ccccc2C1` [Compound 6, 2-propyl-3,4,5,6-dibenzohomopiperidine], the results for the response vs control in vivo at 20 mg/kg in the experiment on serum cholesterol [1] (setting [5]), with serum cholesterol [1] (setting [6]) and in the experiment on serum triglycerides [2] were 78 ± 6%, 65 ± 5% and 73 ± 6%, respectively.
As for `CCc1ccc(-n2c(=O)c3ccccc3c3ccccc3c2=O)cc1` [Compound 27, N-(4-ethyl)-phenyldiphenimide], the response vs control in vivo at 20 mg/kg in the experiment on serum cholesterol [3] (setting [7]) was 101 ± 8%; in the experiment on serum cholesterol [3] (setting [8]), 71 ± 5%; in the experiment on serum triglycerides [4], 70 ± 7%.
Consider `CN1Cc2ccccc2-c2ccccc2C1` [Compound 4, 2-methyl-3,4,5,6-dibenzohomo-piperidine], for which the figures for the response vs control in vivo at 20 mg/kg in the experiment with serum cholesterol [1] (setting [5]), in the experiment on serum cholesterol [1] (setting [6]) and with serum triglycerides [2] were 75 ± 6%, 61 ± 5% and 66 ± 6%, respectively.
Regarding `Cc1ccccc1-n1c(=O)c2ccccc2c2ccccc2c1=O` [Compound 22, N-(2-methyl)-phenyldiphenimide], the results for the response vs control in vivo at 20 mg/kg in the experiment with serum cholesterol [3] (setting [7]), in the experiment with serum cholesterol [3] (setting [8]) and in the experiment on serum triglycerides [4] were 78 ± 7%, 61 ± 6% and 65 ± 6%, respectively.
As for `COc1ccccc1-n1c(=O)c2ccccc2c2ccccc2c1=O` [Compound 19, N-(2-methoxy)-phenyldiphenimide], the response vs control in vivo at 20 mg/kg with serum cholesterol [3] (setting [7]) is 80 ± 8%; with serum cholesterol [3] (setting [8]), 67 ± 5%; with serum triglycerides [4], 68 ± 5%.
The like results for `COc1cccc(-n2c(=O)c3ccccc3c3ccccc3c2=O)c1` [Compound 20, N-(3-methoxy)phenyldiphenimide] were, in that order, 84 ± 7%, 74 ± 7% and 72 ± 8%.
As for `Cn1c(=O)c2ccccc2c2ccccc2c1=O` [Compound 10, N-methyldiphenimide], the response vs control in vivo at 20 mg/kg in the experiment with serum cholesterol [3] (setting [7]) stood at 64 ± 7%; in the experiment with serum cholesterol [3] (setting [8]), 63 ± 5%; in the experiment with serum triglycerides [4], 67 ± 6%.
